Patent US4839466A, “Insulin activity messengers” (The Rockefeller University, priority 1987, dated 1989)

Experiments:
Adenylate Cyclase = assay: Generation of an enzyme modulator from liver plasma membranes, adenylate cyclase readout; assay type: biochemical, rat
Procedure: (§1) Purification of the Enzyme Modulator. Bovine liver particulate fraction was prepared as described previously [Saltiel A. R., (1984) "Preparation and Characterization of Putative Insulin Mediators from Liver", METHODS IN DIABETES […], eds. J. Larner, S. Pohl, I:73]. Solutions were incubated in 5 mM ammonium bicarbonate, pH 7.4 with 10 nM insulin or 1 ug/ml PI-PLC as described in the figure legends. Following incubation, solutions were acidified to pH 4.0 and centrifuged at 35,000 x g for 20 minutes. Resulting supernatants were extracted with chloroform/methanol (2:1). The upper aqueous phase was aspirated and methanol was evaporated. Enzyme modulating activities were purified as described in Publication No. 6 listed earlier herein. Briefly, the extract was chromatographed on DEAE-Cellulose and eluted with 0.25M triethylamine (TEA)-formate, pH 3.75. This was followed by chromatography on C-18 reversed phase resin, in the same buffer, followed by Dowex 50W X-4 in 50 mM TEA-formate, pH 3.0. The resulting eluate was lyophilized, resuspended in 50 mM TEA-formate, pH 4.5 and sequentially chromatographed on QAE-Sephadex, SAX HPLC and a P-2 gel filtration column. Only the cyclic inositol phosphate derivative residing in Peak I was examined.
(§2) Enzyme Assays. The low Km cAMP PDE was assayed in a rat adipocyte particulate fraction as previously described [Saltiel, A. R., Steigerwalt,R. W., (1986) "Purification of Putative Insulin-Sensitive cAMP Phosphodiesterase or its Catalytic Domain From Rat Adipocytes", DIABETES, 35:698] and as later modified in Publication No. 6. Activity was linear throughout 20 min. and proportional to protein concentration. Only the low Km species of the enzyme was present in this fraction. PDH activity was assayed in liver mitoplasts after preincubation with ATP as previously described [Saltiel et al., (1982) PROC. NATL. ACAD. SCI. U.S.A., 79:3513.]. Adenylate cyclase activity was also assayed in purified adipocyte plasma membranes. For all enzyme assays, variability was less than 5%.
(§3) Liver membranes were treated with or without 10 nM insulin or 1 ug/ml PI-PLC for 10 min. at 37° C. Following cetrifugation, the supernatants were extracted and purified up to and including the SAX HPLC step. Purified extracts were added to enzyme assays at a final dilution of 1:10. Enzyme activities were assayed with no additions or after addition of purified extracts from control, insulin or PIPPLC treated membrane. Percent of basal activity is expressed in parentheses. ^1 expressed as pmoles/mg protein-min. ^2 expressed as nmoles/mg protein-min.

Pyruvate Dehydrogenase = assay: Generation of an enzyme modulator from liver plasma membranes, pyruvate dehydrogenase readout; assay type: biochemical, rat
Procedure: as §1, §2, §3

BC3 Hl cells = assay: Insulin-stimulated labeling/hydrolysis of glycolipid (PI-glycan) precursor and water soluble products in BC3 Hl cells; assay type: cell-based, murine
Procedure: FIG. 7--SAX HPLC of Radiolabeled Mediators from Insulin Treated Cells. BC3 Hl cells were cultured at 37° C. in Dulbecco's Minimal Essential Medium in the presence of 20% NU serum (Collaborative Research) on collagen coated 10 mm miniwells. Cells (1×10^6 /well) were preincubated with 10 uCi (A) [2,6^3 H]myoinositol or (B) [1,6^3 H]glucosamine (New England Nuclear) for 20 hours in the presence of 20% Nu Serum. Insulin was added to cells in monolayer in serum free media at a final concentration of 10 nM. Reactions were terminated by removal of media and addition of 1 ml chloroform/methanol/1N HCl (200:100:1), followed by addition of 0.5 ml 10 mM formic acid. Organic and aqueous phases were separated by centrifugation at 500 x g for 5 min.
The water soluble labeled products were purified by a modification of a previously described protocol for purification of cAMP phosphodiesterase (PDE) modulators. The aqueous phases were chromatographed on DEAE-Cellulose, eluted with 0.25 TEA-formate, pH 3.75. This fraction was eluted through a C-18 reversed phase sepak in the same buffer. Following lyophilization, the solution was eluted through Dowex 50WX-4 in 50 mM TEA-formate. pH 3.0. After exposure to activated charcoal, samples were chromatographed on an SAX HLPC column (Whatman), eluted with a linear, 15 minute gradient of 60% methanol (A) to 0.5M TEA-formate, pH 3.75 (B) at 1 ml/minute. One ml fractions were counted. The two peaks of insulin stimulated radioactivity coeluted with similarly purified, myocyte derived PDE modulating activities.
FIG. 9--Thin Layer Chromatography of the Radiolabeled Precursor from Insulin Treated Cells. (A) [^3 H]inositol and B) [^3 H]glucosaminelabeled cells were treated with or without 10 nM insulin. Following extraction and phase separation, the organic phase were dried under N2, resuspended in chloroform/methanol/H2 O (9:7:2); and spotted on oxalate impregnated Silica gel G plates. These were twice developed in chloroform/acetone/methanol/glacial acetic acid/H2 O (10:4:2:2:1). One cm regions were scraped and radioactivity determined by scintillation counting. Phosphoinositides were identified by iodine staining of standards.
FIG. 11--Time Course of Precursor Hydrolysis by Insulin. Cells prelabeled with [^3 H]inositol were treated with 10 nM insulin for the designated intervals. Cells were extracted and phase separated as detailed in FIG. 7. Aqueous phases were chromatographed up to and including the SAX HPLC step (upper panel). Results reflect counts from a combination of Peaks I and II. The ratio of counts in these peaks were unchanged over the time course. The precursor residing in the organic phases was identified by the peak on TLC with an Rf =0.22, corresponding to the species depleted by PI-PLC (FIG. 10).
Following preincubations with the appropriate isotopes, cells were resuspended in DMEM without serum and treated with 10 nM insulin at the designated intervals. Reactions were terminated by the addition of 1 ml chloroform/methanol/1N HCl (200:100:1), followed by 0.5 ml 10 mM formic acid. Following centrifugation at 500 x g for 5 min., the upper phase was discarded. For phospholipid analyses, the lower, organic phase was dried under N2, resuspended in chloroform/methanol/H2 O (9:7:2) and spotted on oxalate impregnated silica gel G plates. These were sequentially developed in chloroform/acetone/methanol/glacial acidic acid/H2 O (10:4:2:2:1) and chloroform/methanol/4N NH4 OH (45:35:10). One cm regions were scraped and eluted with chloroform/methanol (2:1) and counted. Phosphoinositide standards were identified by iodine staining.

[1] = membranes exposed to 10 nM insulin 10 min.

Insulin: monocomponent bovine insulin
Adenylate Cyclase activity (Adenylate Cyclase; extract as E41, no addition 272±14, control membranes 210±4): 72.0±3.7 pmoles/mg protein-min. | inhibition of adenylate cyclase by the substance generated (Adenylate Cyclase; [1]): 75% | Pyruvate Dehydrogenase activity (Pyruvate Dehydrogenase; extract as E41, no addition 1.77±0.07, control membranes 2.45±0.20): 4.80±0.38 nmoles/mg protein-min. | stimulation of PDH by the substance generated (Pyruvate Dehydrogenase; [1]): 2-3 fold | production of [3H]inositol containing products (Peaks I and II combined), share of the maximal effect (BC3 Hl cells; 10 nM insulin, after 30 sec): Seventy | increase of [3H]inositol radioactivity in the precursor over control levels (BC3 Hl cells; 10 nM insulin, after the initial decrease): 60% | decrease in [3H]inositol counts in the precursor (BC3 Hl cells; 10 nM insulin, at 30 sec): 20% | decrease in [3H]inositol labeling of the PI-glycan (BC3 Hl cells; Example IV, after 30 seconds of insulin exposure): 20% | decrease in [3H]myristate labeling of the PI-glycan (BC3 Hl cells; Example IV, by 1 min. of insulin): 60% | gradual increase in [3H]inositol counts of the PI-glycan (BC3 Hl cells; Example IV, following the initial decrease): 40% | time until [3H]myristate labeling of the PI-glycan returned to basal levels (BC3 Hl cells; Example IV, insulin): 20 to 30 min | increase of [3H]glucosamine incorporation in the precursor glycolipid peak (BC3 Hl cells; insulin 10 nM for 10 min., TLC): approximately 40% | increase of [3H]inositol incorporation in the precursor glycolipid peak (BC3 Hl cells; insulin 10 nM for 10 min., TLC): approximately 40%
